Source: patent US11020381B2, “Biaryloxy derivatives as TTX-S blockers” (RaQualia Pharma Inc., priority 2017, dated 2021)
Values joined by “and” are separate entries in the source; they are usually repeats but may differ in a detail not shown here. Identical values can stand only once. Like-named read-outs stand apart in the source and are kept apart here.

Key:
[1] = molecular target: T1, Nav1.7 (Homo sapiens (Human), UniProt Q15858); assay: Affinity to resting state (Kr) and inactivated state (Ki), manual patch clamp; format: cell-based; settings: read-out: Ki (inactivated state) against Nav1.7
Text: Affinity to Resting State (Kr) and Inactivated State (Ki) of Test Compound
The normalized steady-state inactivation curve is constructed using 2 sec (for vehicle) or 60 sec (for drugs) conditioning pulse to different potentials followed immediately by the test pulse to −10 mV. Peak currents are plotted as fraction of the maximum current at the conditioning potentials ranging from −120 mV to 0 mV for Nav1.7. V1/2 and k values are estimated from Boltzmann fits. The affinity of test compound to resting state of Na channels (Kresting or Kr) is assessed by depolarizing test pulse from a negative holding potential of −130 mV, where virtually all channels are in the resting state. Kr value is calculated by a conventional 1:1 binding model: Kresting(Kr)={[drug]Imax,drug/(Imax,control−Imax,drug)} [Math.6] where Kresting (=Kr) is a dissociation constant for the resting state and [drug] is compound concentration. Imax,control and Imax,drug are peak currents in the absence and presence of compound, respectively.
Interaction of the compound with the channel on inactivated state is evaluated by the following equation: Kinact(Ki)={[drug]/((1+[drug]/Kr)*exp(−ΔV/k)−1)} [Math.7] where Kinact (=Ki) is a dissociation constant for the inactivated state. ΔV is the compound-induced voltage shift of half maximal voltage of Boltzmann curve and k is the slop factor on presense of compound.

[2] = molecular target: T1, Nav1.7; assay: EFS-FRET assay; format: cell-based; settings: CHO cells expressing human Nav1.7 channels; read-out: IC50 against Nav1.7
Method: This screen is used to determine the effects of compounds on human Nav1.7 channels, utilizing electrical field stimulation (EFS) system in 96-well plate format on FDSS (Hamamatsu Photonics) platform. The changes of membrane potential are monitored with FRET dye pair, DiSBAC2(3) and PTS 18.
CHO (Chinese hamster ovary) cells expressing human Nav1.7 channels are grown in T225 flasks, in a 5% CO2 humidified incubator to about 80% confluence. Media composition consists of HAM/F12 with Glutamax I, 10% FCS, 100 units/mL penicillin and 100 microgram/mL hygromycin.
Seed each cell lines (1×10^5 cells/well) into 96-well plates prior to experimentation.
Incubate at 37° C. in 5% CO2 for 24 hours.
Wash each well with assay buffer (140 mM NaCl, 4.5 mM KCl, 10 mM D-Glucose, 2 mM CaCl2, 1 mM MgCl2, 10 mM HEPES, pH 7.4 adjusted with NaOH) twice.
Add 1st loading solution containing 10 microM PTS 18 and 0.06% Pluronic F-127 in assay buffer.
Incubate the plate at rt in dark for 1 hour.
Remove 1st loading solution and add 2nd loading solution containing 12.5 microM DiSBAC2(3), 1.25 mM Xylene Fast Yellow and 0.0075% Pluronic F-127 in assay buffer.
Place the plate under the dark at rt for 25 minutes.
Add compound solutions into the assay plate.
Set the assay plate in FDSS and place an EFS device on the plate.
Measure EFS-induced fluorescent response by FDSS.
The data are analyzed and reported as normalized ratios of intensities measured at […]. The process of calculating these ratios is performed as follows:
(§1) This analysis is performed using a computerized specific program designed for FDSS generated data. Fluorescence ratio values are plotted using XLfit to determine an IC50 value for each compound.

[3] = molecular target: T1, Nav1.7; assay: Manual patch clamp assay, two pulse protocol; format: cell-based
Method: Manual patch clamp recordings are conducted at RT using the voltage-clamp amplifier (Axon Instruments or HEKA electronik). Electrodes are pulled with P-97 electrode puller (Sutter Instrument). The electrode resistances are 1-3 MOhm when intercellular solution is filled. Currents are lowpass filtered between 2-5 kHz and digitally sampled at 10 kHz.
The extracellular and intercellular solutions for human Nav1.7 and NaV1.5 consist of the following composition:
Extracellular recording solution (mM): 135 NaCl, 5 KCl, 2 CaCl2, 1 MgCl2, 10 HEPES, and 10 Glucose, pH 7.4 adjusted with NaOH; and
Intercellular solution (mM): 120 CsF, 15 NaCl, 10 EGTA, and 10 HEPES, pH 7.2 adjusted with CsOH.
After whole-cell configuration is achieved, cell is monitored at least 10 minutes to allow cell dialysis with pipette solution. To evaluate of inhibitory effects of test compounds, the cells are clamped at −120 or −130 mV. […]
Peak currents evoked by Test 1 and Test 2 pulses are sampled with Clampex (Axon Instruments) or Pulse+Pulse Fit (HEKA). Averaged peak currents under vehicle or test compounds are calculated from 3 data points at end of each condition. Inhibitory effect (% inhibition) of test compound is calculated as bellow; % inhibition=[1−Averaged peak current (Compound)/Averaged peak current (Vehicle)]×100 [Math.5] […]

[4] = molecular target: T2, Nav1.5 (Homo sapiens (Human), UniProt Q14524); assay: FRET assay; format: cell-based; settings: HEK293 cells expressing human Nav1.5 channels; read-out: activity (IC50) against Nav1.5
Method: This screen is used to determine the effects of compounds on human Nav1.5 channels, utilizing the cell imaging technology by Hamamatsu Photonics's Functional Drug Screening System (FDSS). The changes of membrane potential are monitored with fluorescent membrane potential dye pair, DiSBAC2(3) and CC2-DMPE, using FRET technology.
HEK293 cells expressing human Nav1.5 channels are grown in T225 flasks, in a 5% CO2 humidified incubator to about 80% confluence. HEK293 cells expressing human Nav1.5 channels are maintained in Dulbecco's Modified Eagle Medium (high glucose) supplemented with 10% fetal calf serum (FCS), 100 units/mL Penicillin, 100 microgram/mL Streptomycin and 500 microgram/mL Geneticine. […]
The data is analyzed and reported as normalized ratios of intensities measured in the 465 nm and 575 nm channels. […]
“FI465B”=the mean of fluorescence intensity as baseline (before Na^+ ligand addition) at 465 nm
“FI575B”=the mean of fluorescence intensity as baseline (before Na^+ ligand addition) at 575 nm
“FI465Max” maximum fluorescence intensity at 465 nm after Na^+ stimulation
“FI575Min”=minimum fluorescence intensity at 575 nm after Na^+ stimulation
as §1

[5] = molecular target: T2, Nav1.5; assay: Automated electrophysiology assay (Qpatch HTX); format: cell-based; settings: Test 2 pulse, read-out: Inactivated IC50 against Nav1.5
Method: Automated Electrophysiology Assay
Automated patch clamp recordings are conducted for evaluation of inhibitory effect against Nav1.5 with the Qpatch HTX system according the manufacturer's specifications (Sophion).
The extracellular and intercellular solutions consist of the following composition:
Extracellular recording solution (mM): 137 NaCl, 4 KCl, 1.8 CaCl2, 1 MgCl2, 10 HEPES, and 10 Glucose, pH 7.4 adjusted with NaOH
Intercellular solution (mM): 135 CsF, 10 NaCl, 5 EGTA, and 10 HEPES, pH 7.3 adjusted with CsOH.
To evaluate of inhibitory effects of test compounds against Nav1.5, the cells are clamped at −110 mV. […]
Peak currents evoked by Testl and Test 2 pulses are sampled with Qpatch assay software (Sophion). Averaged peak currents under vehicle or test compounds are calculated from 3 data points at end of each condition. Inhibitory effect (% inhibition) of test compound is calculated as bellow; % inhibition=[1−Averaged peak current (Compound)/Averaged peak current (Vehicle)]×100 [Math.4]
Inhibitory effects (% inhibition) of each concentration are measured from at least 2 cells. Averaged inhibitory effects are plotted against test concentration and IC50 values at Test 1 (Closed IC50) or Test 2 (Inactivated IC50) are calculated with Hill equation, respectively. […]

[6] = molecular target: T1, Nav1.7; settings: data cited from the table at page 103 in WO2012/007868; read-out: IC50 against Nav1.7 channel; cited from earlier work

T1 sequence (Q15858 whole entry): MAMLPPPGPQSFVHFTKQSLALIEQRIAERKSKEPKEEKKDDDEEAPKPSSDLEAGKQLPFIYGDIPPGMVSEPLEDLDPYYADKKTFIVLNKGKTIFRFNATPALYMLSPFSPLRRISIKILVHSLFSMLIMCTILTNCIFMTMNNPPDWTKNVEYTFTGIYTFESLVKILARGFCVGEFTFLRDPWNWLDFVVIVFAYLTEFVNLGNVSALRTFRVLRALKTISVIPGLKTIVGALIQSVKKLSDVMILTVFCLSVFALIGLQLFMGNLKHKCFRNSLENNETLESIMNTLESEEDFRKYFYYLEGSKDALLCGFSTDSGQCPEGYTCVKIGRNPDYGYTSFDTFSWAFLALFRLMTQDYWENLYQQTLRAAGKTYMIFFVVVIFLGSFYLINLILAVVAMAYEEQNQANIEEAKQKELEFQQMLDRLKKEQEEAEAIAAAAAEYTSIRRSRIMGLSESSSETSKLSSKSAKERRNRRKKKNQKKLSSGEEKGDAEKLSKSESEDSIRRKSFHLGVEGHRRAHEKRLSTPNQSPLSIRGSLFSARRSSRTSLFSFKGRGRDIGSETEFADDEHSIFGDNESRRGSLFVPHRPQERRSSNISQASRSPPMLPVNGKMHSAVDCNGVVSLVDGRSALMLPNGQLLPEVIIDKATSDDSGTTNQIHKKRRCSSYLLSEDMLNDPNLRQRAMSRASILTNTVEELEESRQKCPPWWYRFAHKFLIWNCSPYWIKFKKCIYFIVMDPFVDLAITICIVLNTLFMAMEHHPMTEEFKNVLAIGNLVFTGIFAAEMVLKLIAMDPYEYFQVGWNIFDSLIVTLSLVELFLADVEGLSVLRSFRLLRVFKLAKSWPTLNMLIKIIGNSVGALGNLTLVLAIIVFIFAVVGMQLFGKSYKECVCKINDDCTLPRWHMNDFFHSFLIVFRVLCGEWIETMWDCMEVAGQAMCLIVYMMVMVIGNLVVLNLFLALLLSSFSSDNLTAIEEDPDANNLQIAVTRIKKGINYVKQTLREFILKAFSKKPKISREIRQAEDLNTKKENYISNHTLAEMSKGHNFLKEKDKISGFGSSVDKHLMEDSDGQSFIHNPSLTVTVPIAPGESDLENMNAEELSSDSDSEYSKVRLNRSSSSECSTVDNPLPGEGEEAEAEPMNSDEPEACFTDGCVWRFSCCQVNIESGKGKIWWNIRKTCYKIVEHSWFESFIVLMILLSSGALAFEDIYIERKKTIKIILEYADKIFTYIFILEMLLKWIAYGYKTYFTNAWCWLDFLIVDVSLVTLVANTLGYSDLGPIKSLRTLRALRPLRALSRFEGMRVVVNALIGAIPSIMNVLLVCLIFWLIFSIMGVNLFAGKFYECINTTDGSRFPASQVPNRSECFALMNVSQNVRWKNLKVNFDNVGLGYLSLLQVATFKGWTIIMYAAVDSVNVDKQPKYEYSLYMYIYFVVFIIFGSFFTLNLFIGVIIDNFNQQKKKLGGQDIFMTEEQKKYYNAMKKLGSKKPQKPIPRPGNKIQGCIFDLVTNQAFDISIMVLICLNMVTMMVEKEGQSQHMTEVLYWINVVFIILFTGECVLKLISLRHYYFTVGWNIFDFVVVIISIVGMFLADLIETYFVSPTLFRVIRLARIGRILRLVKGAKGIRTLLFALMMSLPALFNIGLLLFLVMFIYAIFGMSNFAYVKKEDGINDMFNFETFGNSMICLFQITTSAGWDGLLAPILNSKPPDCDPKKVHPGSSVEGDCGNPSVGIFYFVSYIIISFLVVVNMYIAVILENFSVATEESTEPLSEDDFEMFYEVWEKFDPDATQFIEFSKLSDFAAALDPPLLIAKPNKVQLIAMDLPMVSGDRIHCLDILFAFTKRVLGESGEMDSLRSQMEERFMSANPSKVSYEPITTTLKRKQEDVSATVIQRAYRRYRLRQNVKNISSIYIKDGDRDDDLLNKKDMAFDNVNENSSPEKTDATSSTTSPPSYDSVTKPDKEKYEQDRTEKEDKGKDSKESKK
T2 sequence (Q14524 whole entry): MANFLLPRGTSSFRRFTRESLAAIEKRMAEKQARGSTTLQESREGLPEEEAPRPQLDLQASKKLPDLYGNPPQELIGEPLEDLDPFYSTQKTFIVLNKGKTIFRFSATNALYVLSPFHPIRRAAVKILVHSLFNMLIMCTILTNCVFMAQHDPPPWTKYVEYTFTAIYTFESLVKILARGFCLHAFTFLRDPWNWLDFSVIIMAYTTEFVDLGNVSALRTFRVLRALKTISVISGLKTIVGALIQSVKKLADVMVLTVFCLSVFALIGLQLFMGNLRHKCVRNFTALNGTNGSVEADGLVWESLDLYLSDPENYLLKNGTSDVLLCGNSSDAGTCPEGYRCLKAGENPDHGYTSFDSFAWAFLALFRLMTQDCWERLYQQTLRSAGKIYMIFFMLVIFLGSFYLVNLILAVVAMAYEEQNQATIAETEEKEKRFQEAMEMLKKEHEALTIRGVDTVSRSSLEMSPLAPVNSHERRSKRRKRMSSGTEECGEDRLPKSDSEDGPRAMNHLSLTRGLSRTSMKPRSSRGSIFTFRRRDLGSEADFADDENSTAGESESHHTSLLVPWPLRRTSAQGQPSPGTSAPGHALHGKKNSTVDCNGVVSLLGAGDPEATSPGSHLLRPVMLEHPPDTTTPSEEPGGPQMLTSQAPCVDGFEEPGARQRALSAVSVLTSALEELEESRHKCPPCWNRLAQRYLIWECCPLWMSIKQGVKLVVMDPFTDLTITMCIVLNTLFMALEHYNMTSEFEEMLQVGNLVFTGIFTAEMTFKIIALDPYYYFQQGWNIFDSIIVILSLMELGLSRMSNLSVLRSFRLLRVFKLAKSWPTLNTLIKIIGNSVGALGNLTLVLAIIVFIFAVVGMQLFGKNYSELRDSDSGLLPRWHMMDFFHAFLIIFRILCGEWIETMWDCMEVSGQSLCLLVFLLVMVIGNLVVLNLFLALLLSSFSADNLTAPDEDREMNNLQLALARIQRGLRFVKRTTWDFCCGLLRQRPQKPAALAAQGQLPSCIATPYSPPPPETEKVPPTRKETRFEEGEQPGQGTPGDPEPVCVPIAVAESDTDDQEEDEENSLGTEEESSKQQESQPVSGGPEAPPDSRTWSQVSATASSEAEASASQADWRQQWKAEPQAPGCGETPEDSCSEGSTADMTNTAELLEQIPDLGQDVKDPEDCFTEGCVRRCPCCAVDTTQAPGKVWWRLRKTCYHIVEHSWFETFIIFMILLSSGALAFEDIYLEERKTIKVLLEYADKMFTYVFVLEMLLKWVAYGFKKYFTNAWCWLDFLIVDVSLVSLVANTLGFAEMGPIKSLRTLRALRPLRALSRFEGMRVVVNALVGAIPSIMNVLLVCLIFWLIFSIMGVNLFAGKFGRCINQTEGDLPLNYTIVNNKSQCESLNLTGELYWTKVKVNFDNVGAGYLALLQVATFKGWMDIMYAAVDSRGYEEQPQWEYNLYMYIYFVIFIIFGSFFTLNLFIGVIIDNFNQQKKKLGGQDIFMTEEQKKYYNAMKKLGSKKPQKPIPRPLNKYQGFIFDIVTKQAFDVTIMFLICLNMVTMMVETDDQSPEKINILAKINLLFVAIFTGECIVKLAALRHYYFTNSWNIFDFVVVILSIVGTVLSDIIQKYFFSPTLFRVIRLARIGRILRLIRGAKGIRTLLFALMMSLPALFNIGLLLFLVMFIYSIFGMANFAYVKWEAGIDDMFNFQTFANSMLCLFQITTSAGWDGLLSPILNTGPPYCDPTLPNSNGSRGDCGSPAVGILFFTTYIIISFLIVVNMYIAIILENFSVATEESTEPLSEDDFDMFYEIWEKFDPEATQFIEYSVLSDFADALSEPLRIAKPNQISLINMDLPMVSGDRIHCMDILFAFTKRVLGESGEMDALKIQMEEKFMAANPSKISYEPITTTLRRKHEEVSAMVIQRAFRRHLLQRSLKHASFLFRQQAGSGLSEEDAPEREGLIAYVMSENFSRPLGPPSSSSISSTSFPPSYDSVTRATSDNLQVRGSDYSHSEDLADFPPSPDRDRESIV

SMILES | IC50 [2] | other results
CS(=O)(=O)NC(=O)c1ccc(COc2cccc(-c3ccc(OCC4CC4)nc3)c2)cc1 [Example 2, 4-((3-(6-(cyclopropylmethoxy)pyridin-3-yl)phenoxy)methyl)-N-(methylsulfonyl)benzamide] | 84 nM and 80 nM | Ki [1]: 22 nM; selectivity for Nav1.7 over Nav1.5 [3]: 75 fold; IC50 [4]: > 30000 nM
CS(=O)(=O)NC(=O)c1ccc(COc2cccc(-c3ccc(OCC4CC4)nc3)c2)c(F)c1 [Example 14, 4-((3-(6-(cyclopropylmethoxy)pyridin-3-yl)phenoxy)methyl)-3-fluoro-N-(methylsulfonyl)benzamide] | 50 nM | 
CS(=O)(=O)NC(=O)c1cc(F)c(COc2cccc(-c3ccc(OCC4CC4)nc3)c2)cc1F [Example 24, 4-((3-(6-(cyclopropylmethoxy)pyridin-3-yl)phenoxy)methyl)-2,5-difluoro-N-(methylsulfonyl)benzamide] | 50 nM | 
CS(=O)(=O)NC(=O)c1ccc(COc2cc(F)cc(-c3ccc(OCC4CC4)nc3)c2)cc1 [Example 30, 4-((3-(6-(cyclopropylmethoxy)pyridin-3-yl)-5-fluorophenoxy)methyl)-N-(methylsulfonyl)benzamide] |  | IC50 [5]: > 30000 nM
CS(=O)(=O)NC(=O)c1ccc(COc2cccc(-c3cc(CC4CC4)on3)c2)c(F)c1 [Example 84, 4-((3-(5-(cyclopropylmethyl)isoxazol-3-yl)phenoxy)methyl)-3-fluoro-N-(methylsulfonyl)benzamide] | 50 nM | 
CS(=O)(=O)NC(=O)c1ccc(COc2cccc(C3CCNCC3)c2)cc1 [WO2012/007868 Example 35] |  | IC50 [6]: > 3000 nM
Cc1c(OCc2cc(F)c(C(=O)NS(C)(=O)=O)cc2F)cccc1-n1cccn1 [WO2012/007868 Example 102] |  | IC50 [6]: > 3000 nM
CS(=O)(=O)NC(=O)c1ccc(COc2cccc(-c3cccnc3)c2)cc1 [reference compound (A), reference compound] | > 3000 nM | 
CS(=O)(=O)NC(=O)c1ccc(COc2cccc(-c3cccnc3)c2)c(F)c1 [reference compound (B), reference compound] | 1300 nM | 
CS(=O)(=O)NC(=O)c1cc(F)c(COc2cccc(-c3cccnc3)c2)cc1F [reference compound (C), reference compound] | 600 nM | 
